Experimental data taken from patent US20080269304A1, “Parakeratosis inhibitor, pore-shrinking agent and skin preparation for external use” (priority 2002, published 2008).

Tests used:
[1] = tested on: parakeratosis caused by oleic acid; assay: Test on parakeratosis inhibitory action (oleic acid applied on the back of a hairless mouse); assay type: in vivo; settings: for Incidence of Parakeratosis (Average of 4 mice): 100 μL, 3 days, grades of 1 to 4; for Effect on parakeratosis caused by oleic acid (in words): summary of Tables 2 and 3, hairless mouse
Procedure: An aqueous solution containing 3% each of GABA, glycine, D-glutamic acid and L-glutamic acid was prepared, and pH of each solution was adjusted to nutrality, if necessary. An aqueous solution containing 10 mM each of GABA, bicuculline methobromide (antagonist to GABA receptor type A), MK-801, muscimol, isogubacin, ATP, suramin, PPADS and TNP-ATP was also prepared.
Thereafter, 100 μL of sample solution or reference solution was applied. This procedure was repeated for 3 days, and the keratin layer on the back was peeled with a tape. The nucleus of the keratin layer was stained with hematoxylin, the number of nuclear cells was counted under a microscope, and the results were evaluated in four grades of 1 to 4.

[2] = tested on: pores; assay: Test on pore-shrinking action (replicas of cheek pores); settings: for Decision of Replica of Pores (Average of n = 5): 3% sample solution on cheek twice a day for 1 month, difference of scores (13 grades of 1 to 13) before and after the test; for Pore-shrinking effect (in words): summary of Table 4, 3% solutions
[3] = tested on: Epidermal keratinocyte; assay: Excitatory action test of cells with oleic acid (intracellular calcium, fura-2-AM); assay type: cell-based; settings: summary of Table 1
Procedure: Epidermal keratinocyte was cultivated on an appropriate medium, for example, KGM medium, according to the conventional method. The cultured cells were seeded on a cover glass chamber and cultivated there a day before measuring calcium ions. An appropriate buffer solution, for example BSS (balanced salt solution) and a calcium sensitive fluorescent pigment (fura-2-AM) were added in the cultured cell at a concentration of about 2 μM on the next day, and the fluorescent pigment was allowed to be incorporated into the cell by incubating under an appropriate condition (for example 30 minutes at 37° C.). After completing intake of the pigment, the same buffer solution (fresh BSS) was added. […] The same measurement was carried out by adding only the same buffer solution (BSS). The fluorescence intensity at 340 nm was divided by the fluorescence intensity at 380 nm for determining the calcium concentration according to the conventional method.

[4] = Application Test of 30% Oleic Acid Solution, sample 3% solution, water reference 2.5
[5] = Application Test of 3% Oleic Acid Solution, sample 10 mM, water reference 2.0

Compound	Incidence of Parakeratosis (Average of 4 mice) [1, 4]	Effect on parakeratosis caused by oleic acid (in words) [1]	Decision of Replica of Pores (Average of n = 5) [2]	Pore-shrinking effect (in words) [2]	Incidence of Parakeratosis (Average of 4 mice) [1, 5]	Excitatory function of the cell (in words) [3]
NCC(=O)O [Glycine, glycine]	1.3	improved parakeratosis	−1.2	excellent pore-shrinking effects	–	–
NCCCC(=O)O [GABA, γ-aminobutyric acid]	1.5	improved parakeratosis	−1.0	excellent pore-shrinking effects	1.5	–
N[C@H](CCC(=O)O)C(=O)O [D-Glutamic Acid, D-glutamic acid]	2.0	improved parakeratosis	−0.4	excellent pore-shrinking effects	–	–
O=C(O)C1=CCNCC1 [Isogubacin, isogubacin]	–	improved parakeratosis	–	–	1.3	–
trinitrophenyl-ATP [TNP-ATP]	–	improved parakeratosis	–	–	1.5	–
C[C@]12N[C@H](Cc3ccccc31)c1ccccc12 [MK-801, dizocylpin]	–	improved parakeratosis	–	–	1.0	–
Nc1ncnc2c1ncn2[C@@H]1O[C@H](COP(=O)(O)OP(=O)(O)OP(=O)(O)O)[C@@H](O)[C@H]1O [ATP]	–	worsens parakeratos is	–	–	2.3	–
N[C@@H](CCC(=O)O)C(=O)O [L-Glutamic Acid, L-glutamic acid]	3.0	worsens parakeratosis	–	–	–	–
Cc1ccc(C(=O)Nc2ccc(S(=O)(=O)O)c3cc(S(=O)(=O)O)cc(S(=O)(=O)O)c23)cc1NC(=O)c1cccc(NC(=O)Nc2cccc(C(=O)Nc3cc(C(=O)Nc4ccc(S(=O)(=O)O)c5cc(S(=O)(=O)O)cc(S(=O)(=O)O)c45)ccc3C)c2)c1 [Suramin, suramin]	–	improved parakeratosis	–	–	1.5	–
CCCCCCCC/C=C\CCCCCCCC(=O)O [Oleic Acid, oleic acid]	–	–	–	–	–	has an excitatory function
C[N+]1(C)CCc2cc3c(cc2[C@H]1[C@@H]1OC(=O)c2c1ccc1c2OCO1)OCO3.[Br-] [bicuculline methobromide]	–	inhibited parakeratosis inhibitory action	–	–	–	–
Cc1nc(N=Nc2ccc(S(=O)(=O)O)cc2S(=O)(=O)O)c(COP(=O)(O)O)c(C=O)c1O [PPADS, pyridoxal phosphate-6-azophenyl-2′,4′-disulfonic acid]	–	improved parakeratosis	–	–	1.8	–
NCc1cc(=O)[nH]o1 [Muscimol, muscimol]	–	improved parakeratosis	–	–	1.3	–
